Assay results taken from US8722910B2, “Diyne compositions” (Evolva AG, priority 2009, dated 2014).
Converted amounts (≈) assume the structure as drawn.

How the values were obtained:
Rhizoctonia solani = test: In vitro mycelial growth inhibition, poisoned plate; format: cell-based; details: 50 μg/ml
[1] = tested on: Botryodiplodia theobromae; test: as above; format: cell-based; details: Lasiodiplodia theobromae, 50 μg/ml
Sclerotium rolfsii = test: as above; format: cell-based; details: Agroathelia rolfsii, 50 μg/ml
Macrophomina phaseolina = test: as above; format: cell-based; details: 100 μg/ml
Pythium aphanidermatum = test: as above; format: cell-based; details: 50 μg/ml
Fusarium verticillioides = test: as above; format: cell-based; details: 50 μg/ml
Fusarium oxysporum = test: Mycelial growth inhibition, disc diffusion assay; format: cell-based
C. albicans ATCC-24433 = test: MIC versus reference Candida strains (broth micro dilution); design: MICs (100% inhibition): unit not given beside the values
C. albicans ATCC-90028 = test: as above; design: MICs (100% inhibition): unit not given beside the values
C. glabrata ATCC-90030 = test: as above; design: MICs (100% inhibition): unit not given beside the values
C. krusei ATCC-6258 = test: as above; design: MICs (100% inhibition): unit not given beside the values
[2] = tested on: C. parapsilosis ATCC-22019; test: as above; design: MICs (100% inhibition): unit not given beside the values
[3] = tested on: C. parapsilosis ATCC-90018; test: as above; design: MICs (100% inhibition): unit not given beside the values
C. tropicalis ATCC-750 = test: as above; design: MICs (100% inhibition): unit not given beside the values

SMILES: O=C(O)CCCCCCCCCC#CC#Cc1ccco1 [Compound X″]
- inhibition at 50 µg/mL (Rhizoctonia solani): 19%
- inhibition at 50 µg/mL [1]: 15%
- inhibition at 50 µg/mL (Sclerotium rolfsii): 5%
- inhibition at 100 µg/mL (Macrophomina phaseolina): 15%
- % Mycelial Growth Inhibition (Pythium aphanidermatum): No inhibition
- inhibition at 50 µg/mL (Fusarium verticillioides): 14%
- % Mycelial Growth Inhibition (Fusarium oxysporum): No inhibition
- MIC breakpoints (C. albicans ATCC-24433; C. albicans ATCC 24433, CLSI M27-A3, growth inhibition of 100%, 35° C., 24 hrs): 20 ng/mL (≈ 0.0698 µM)
- MICs (100% inhibition) (C. albicans ATCC-24433; C. albicans ATCC 24433, NCCLS M27A, 35° C., 24 hrs): 20
- MIC (C. albicans ATCC-24433; Candida albicans, ATCC24433, read-out: minimal inhibitory concentrations): 0.02 µg/mL (≈ 0.0698 µM)
- MIC breakpoints (C. albicans ATCC-90028; C. albicans ATCC 90028, CLSI M27-A3, growth inhibition of 100%, 35° C., 24 hrs): 20 ng/mL (≈ 0.0698 µM)
- MICs (100% inhibition) (C. albicans ATCC-90028; C. albicans ATCC 90028, NCCLS M27A, 35° C., 24 hrs): 20
- MIC (C. albicans ATCC-90028; Candida albicans, ATCC90028, read-out: minimal inhibitory concentrations): 0.02 µg/mL (≈ 0.0698 µM)
- MIC breakpoints (C. glabrata ATCC-90030; C. glabrata ATCC 90030, CLSI M27-A3, growth inhibition of 100%, 35° C., 24 hrs): 2560 ng/mL (≈ 8.94 µM)
- MICs (100% inhibition) (C. glabrata ATCC-90030; C. glabrata ATCC 90030, NCCLS M27A, 35° C., 24 hrs): 2560
- MIC (C. glabrata ATCC-90030; Nakaseomyces glabratus, ATCC90030, read-out: minimal inhibitory concentrations): 2.56 µg/mL (≈ 8.94 µM)
- MIC breakpoints (C. krusei ATCC-6258; C. krusei ATCC 6258, CLSI M27-A3, growth inhibition of 100%, 35° C., 24 hrs): 1280 ng/mL (≈ 4.47 µM)
- MICs (100% inhibition) (C. krusei ATCC-6258; C. krusei ATCC 6258, NCCLS M27A, 35° C., 24 hrs): 1280
- MIC (C. krusei ATCC-6258; Pichia kudriavzevii, ATCC6258, read-out: minimal inhibitory concentrations): 1.28 µg/mL (≈ 4.47 µM)
- MIC breakpoints ([2]; C. parapsilosis ATCC 22019, CLSI M27-A3, growth inhibition of 100%, 35° C., 24 hrs): >10240 ng/mL
- MICs (100% inhibition) ([2]; C. parapsilosis ATCC 22019, NCCLS M27A, 35° C., 24 hrs): >10240
- MIC ([2]; Lodderomyces parapsilosis, ATCC22019, read-out: minimal inhibitory concentrations): > 10.2 µg/mL
- MIC breakpoints ([3]; C. parapsilosis ATCC 90018, CLSI M27-A3, growth inhibition of 100%, 35° C., 24 hrs): >10240 ng/mL
- MICs (100% inhibition) ([3]; C. parapsilosis ATCC 90018, NCCLS M27A, 35° C., 24 hrs): >10240
- MIC ([3]; Lodderomyces parapsilosis, ATCC90018, read-out: minimal inhibitory concentrations): > 10.2 µg/mL
- MIC breakpoints (C. tropicalis ATCC-750; C. tropicalis ATCC 750, CLSI M27-A3, growth inhibition of 100%, 35° C., 24 hrs): 80 ng/mL (≈ 0.279 µM)
- MICs (100% inhibition) (C. tropicalis ATCC-750; C. tropicalis ATCC 750, NCCLS M27A, 35° C., 24 hrs): 80
- MIC (C. tropicalis ATCC-750; Candida tropicalis, ATCC750, read-out: minimal inhibitory concentrations): 0.08 µg/mL (≈ 0.279 µM)
